# Test results reported in patent publication US12163161B2, “In vitro method for identifying thoracic aortic aneurysms (TAA) in a subject” (CENTRO NACIONAL DE INVESTIGACIONES CARDIOVASCULARES CARLOS …, priority 2016, dated 2024).
# What was measured:
# Nos2 [1] = biological target: T1, Nos2 (Mus musculus, UniProt P29477); test: NO / total NOx production in VSMCs transduced with siAdamts1 and treated with Nos2 inhibitors; type: cell-based; conditions: FIG. 16: 1400W (2 μm), AG, GW273629 (20 μm), 1-NIL (3 mM), Clotrimazole (20 μM)
# T1 construct: endogenous in cells; host or cells: primary mouse VSMCs transduced with siCtl or siAdamts1 lentivirus
# Method: FIG. 17. Representative images (n=4) of NO production (red) and GFP fluorescence (green) in unfixed VSMCs transduced with siCtl or siAdamts1 and treated with the Nos2 inhibitors as indicated. Bar, 50 μm.
# Mouse vascular smooth muscle cells (VSMCs) were isolated and grown as described (Esteban et al., 2011). All experiments were performed during passages 3-7. VSMCs were infected at a multiplicity of infection (MOI)=3 over 5 h. The medium was then replaced with fresh DMEM supplemented with 10% FBS, and cells were cultured for 3 more days, serum-starved for 48 h and then stimulated with Ang-II for 6 h for protein assays or 4 h for mRNA expression analysis.
# NOS2 [2] = biological target: NOS2 (Homo sapiens, UniProt P35228); conditions: as reported previously; cited from earlier work
# Fbn1C1039G/+ mice = test: Treatment of Fbn1C1039G/+ mice (Marfan syndrome model); type: in vivo, mouse
# Source text: (§1) Animal procedures were approved by the CNIC Ethics Committee and conformed to European Union guidelines for the care and experimental use of animals. Adamts1+/− mice were obtained from the European Mouse Mutant Archive [(EM:02291) B6; 129P2-Adamts1<tm1Dgen>/H] and carried a LacZ-Neo cassette to replace a genomic sequence (c7784) between exon1 and 2 in the Adamts1 target allele. Fbn1C1039G/+ mice (Judge et al., 2004), harboring a mutation in the Fbn1 gene, and Nos2−/− mice (Laubach et al., 1995) were obtained from Jackson Laboratories (JAX mice stock #012885 and 007072, respectively). These 3 strains had been previously backcrossed to C57BL/6 for more than nine generations. All mice were genotyped by PCR of tail samples using the following primers: Adamts1 mice (5′-[…]-3′(SEQ ID NO: 5), 5′-[…] (SEQ ID NO: 6)/[…]-3′ (SEQ ID NO: 7)); Nos2−/− mice (5′[…] 3′ (SEQ ID NO: 8); 5′ […] 3′(SEQ ID NO: 9), 5′ […] 3′) (SEQ ID NO: 10); Fbn1C1039G/+ mice (5′CTCATCATTTTTGGCCAGTTG 3′ (SEQ ID NO: 11), 5′GCACTTGATGCACATTCACA 3′ (SEQ ID NO: 12)). Wild-type littermates were used as controls unless otherwise specified. Mice were treated with Ang-II (Sigma-Aldrich) at 1 μg/kg/min or losartan (Sigma Aldrich) at 10 mg/kg/day using subcutaneous osmotic minipumps (Alzet Corp). The monoclonal pan-antibody against TGFβ1, 2, 3 clone 1D11 (BioXcell) was injected intraperitoneally 3 times per week at 10 mg/kg.
# (§2) Arterial blood pressure (BP) was measured in mouse tails using the automated BP-2000 Blood Pressure Analysis System (Visitech Systems, Apex, NC, USA). In brief, mice were trained for BP measurements every day for one week. After training, BP was measured one day before treatment or before lentiviral infection to determine the baseline BP values in each mouse cohort. Measurements were repeated several times during experiments. BP measurements were recorded in mice located in a tail-cuff restrainer, over a warmed surface (37° C.). Fifteen consecutive systolic and diastolic BP measurements were made, and the last ten readings per mouse were recorded and averaged.
# (§3) For in vivo ultrasound images, the aortic diameter was monitored in isofluorane-anesthetized mice (2% isofluorane) by high-frequency ultrasound with a VEVO 2100 echography device (VisualSonics, Toronto, Canada). Maximal internal diameters of aortic images were measured using VEVO 2100 software, version 1.5.0. […]
# (§4) Images of Masson's trichrome and EVG staining were analyzed for collagen content with ImageJ (http://rsbweb.nih.gov/ij/index.html) and with MetaMorph (Molecular Devices; Sunnyvale, California) for quantification of elastin breaks. For each animal, elastin breaks were counted in 3 sections and the mean number of breaks was calculated. […]
# [3] = tested on: siAdamts1-transduced C57BL/6 mice; test: Aortopathy induced by siAdamts1 lentivirus (aortic Adamts1 knockdown) in C57BL/6 mice; type: in vivo, mouse; conditions: for Elastic fiber fragmentation (elastolysis, elastin breaks) / Fibrosis (collagen content): aortic sections, end of experiment; for Aortic dilation (AsAo and AbAo diameter) induced by siAdamts1: anti-TGFβ 10 mg/kg i.p. 3 times per week, L-NAME 0.5 mg/ml in drinking water; for Systolic and diastolic BP (hypotension) in siAdamts1-transduced mice: same treatments as E4
# Source text: as §1, §2
# (§5) For in vivo ultrasound images, the aortic diameter was monitored in isofluorane-anesthetized mice (2% isofluorane) by high-frequency ultrasound with a VEVO 2100 echography device (VisualSonics, Toronto, Canada). Maximal internal diameters of aortic images were measured using VEVO 2100 software, version 1.5.0. All recordings were made by a cardiologist and a technician who were blinded to animal genotype and treatment. Measurements were taken before lentivirus administration or the corresponding treatments to determine the baseline diameters, and measurements were repeated several times during the experiment.
# For in vivo transduction experiments, animals were anesthetized (ketamine/xilacine) and a small incision was made to expose the right jugular vein (Esteban et al., 2011). Virus solution ([…] in PBS) was inoculated directly into the right jugular vein 3 weeks before Ang-II mini-pump implantation or one day before monitoring of aortic dilation. Transduction efficiency was analyzed in aortic samples by immunohistochemistry for GFP and Adamts1.
# as §4, with “calculated. Images were processed for presentation with Photoshop and Illustrator (Adobe).” for “calculated.”
# Aortic extracts were prepared from whole aortas as described for immunoblot assays, but in the absence of DTT. Extracts (15 μg) were fractionated under nonreducing conditions on SDS-polyacrylamide gels containing 1% gelatin. […]
# Adamts1+/− mice = test: Treatment of Adamts1+/− mice (aortic diameter, BP, histology); type: in vivo, mouse
# Source text: as §1, §2, §5
# Images of Masson's trichrome and EVG staining were analyzed for collagen content with ImageJ (http://rsbweb.nih.gov/ij/index.html) and with MetaMorph (Molecular Devices; Sunnyvale, California) for quantification of elastin breaks. For each animal, elastin breaks were counted in 3 sections and the mean number of breaks was calculated. Images were processed for presentation with Photoshop and Illustrator (Adobe).
# model of severe MFS = conditions: compared with mild MFS model; cited from earlier work
# aortic root enlargement = conditions: randomized clinical trials, cited from earlier work
# mouse model of mild MFS = conditions: cited from earlier work
# wt mice = test: Ang-II treatment of wt mice for 28 days (ultrasonography of aorta); type: in vivo, mouse
# Source text: Animal procedures were approved by the CNIC Ethics Committee and conformed to European Union guidelines for the care and experimental use of animals. Adamts1+/− mice were obtained from the European Mouse Mutant Archive [(EM:02291) B6; 129P2-Adamts1<tm1Dgen>/H] and carried a LacZ-Neo cassette to replace a genomic sequence (c7784) between exon1 and 2 in the Adamts1 target allele. Fbn1C1039G/+ mice (Judge et al., 2004), harboring a mutation in the Fbn1 gene, and Nos2−/− mice (Laubach et al., 1995) were obtained from Jackson Laboratories (JAX mice stock #012885 and 007072, respectively). These 3 strains had been previously backcrossed to C57BL/6 for more than nine generations. […]
# as §3
# To investigate the contribution of Adamts1 to Ang-II-elicited aortic dilation and aneurysm, we used Adamts1 deficient mice from the European Mouse Mutant Archive (EM: 02291). […] No aneurysms or lethal dissections were detected in Adamts1+/− mice in the absence of Ang-II at this age.
# [4] = L-NAME 21 days, end of experiment
# NOS2, sequence (P35228 whole entry): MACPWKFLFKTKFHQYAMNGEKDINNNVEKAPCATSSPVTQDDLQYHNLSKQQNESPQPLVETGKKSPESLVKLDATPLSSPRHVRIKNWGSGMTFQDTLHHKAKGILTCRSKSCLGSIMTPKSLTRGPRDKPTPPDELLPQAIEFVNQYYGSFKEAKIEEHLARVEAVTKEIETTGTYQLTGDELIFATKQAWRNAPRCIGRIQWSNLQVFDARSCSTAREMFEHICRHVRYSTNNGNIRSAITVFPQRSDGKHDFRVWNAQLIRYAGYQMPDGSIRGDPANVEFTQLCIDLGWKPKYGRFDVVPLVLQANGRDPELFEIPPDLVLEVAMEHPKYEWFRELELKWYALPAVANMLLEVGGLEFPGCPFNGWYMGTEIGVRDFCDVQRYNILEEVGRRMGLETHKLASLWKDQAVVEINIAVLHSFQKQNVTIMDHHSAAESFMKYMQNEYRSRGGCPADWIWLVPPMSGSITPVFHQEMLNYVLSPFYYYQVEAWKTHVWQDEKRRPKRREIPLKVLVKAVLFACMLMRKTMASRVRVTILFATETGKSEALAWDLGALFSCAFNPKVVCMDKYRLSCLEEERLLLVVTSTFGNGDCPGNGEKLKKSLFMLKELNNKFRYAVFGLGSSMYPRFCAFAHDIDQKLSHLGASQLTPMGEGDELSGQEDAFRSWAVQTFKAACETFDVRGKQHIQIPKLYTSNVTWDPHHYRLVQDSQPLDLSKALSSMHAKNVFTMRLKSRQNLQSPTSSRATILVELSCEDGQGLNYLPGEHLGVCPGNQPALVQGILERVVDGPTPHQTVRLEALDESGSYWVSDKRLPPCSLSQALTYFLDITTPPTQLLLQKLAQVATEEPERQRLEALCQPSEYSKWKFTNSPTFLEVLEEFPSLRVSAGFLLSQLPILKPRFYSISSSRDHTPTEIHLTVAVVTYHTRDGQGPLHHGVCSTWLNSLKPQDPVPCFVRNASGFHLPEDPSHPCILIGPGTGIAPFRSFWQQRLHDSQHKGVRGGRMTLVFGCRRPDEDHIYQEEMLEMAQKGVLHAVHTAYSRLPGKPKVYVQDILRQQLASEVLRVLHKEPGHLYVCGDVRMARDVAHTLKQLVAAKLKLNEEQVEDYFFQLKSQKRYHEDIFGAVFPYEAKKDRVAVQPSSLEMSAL
compound,measurement,setting,value
CC(=N)NCc1cccc(CN)c1 [1400W],"NO production (total NOx in conditioned media, NO staining)",Nos2 [1],reduced the expression of NO
Clc1ccccc1C(c1ccccc1)(c1ccccc1)n1ccnc1 [Clotrimazole],"NO production (total NOx in conditioned media, NO staining)",Nos2 [1],reduced the expression of NO
same,Dimerization of NOS2,NOS2 [2],inhibits the dimerization of NOS2
CC(=N)NCCS(=O)(=O)CC(N)C(=O)O (centres unmarked) [GW273629],"NO production (total NOx in conditioned media, NO staining)",Nos2 [1],reduced the expression of NO
"COC(=O)[C@@H](N)CCCNC(=N)N[N+](=O)[O-].Cl [L-NAME, Nω-Nitro-L-arginine methyl ester hydrochloride]","NO production (total NOx in conditioned media, NO staining)",Nos2 [1],reduced the expression of NO
same,AsAo and AbAo diameters,"Fbn1C1039G/+ mice; 12-week-old mice, L-NAME in drinking water for 21 days",rapidly decreased the AsAo and AbAo diameters to normal levels
same,Collagen content,"Fbn1C1039G/+ mice; L-NAME 21 days, AsAo and AbAo",unaffected
same,Elastic fiber fragmentation,Fbn1C1039G/+ mice; [4],diminished elastic fiber fragmentation
same,Systolic and diastolic BP,Fbn1C1039G/+ mice; [4],augmented the systolic and diastolic BP
same,Mmp9 activation (zymography),[3]; aortic extracts from siAdamts1-transduced mice,prevented Mmp9 activation
same,"Elastic fiber fragmentation (elastolysis, elastin breaks)",[3],blocked elastolysis
same,Fibrosis (collagen content),[3],decreased the fibrosis
same,Aortic dilation (AsAo and AbAo diameter) induced by siAdamts1,[3]; losartan 10 mg/kg/day minipump,prevented siAdamts1-induced dilation of the AsAo and the AbAo
same,Systolic and diastolic BP (hypotension) in siAdamts1-transduced mice,[3],hypertensive effect
same,Time to complete reversal of aortic dilation,Adamts1+/− mice; Adamts1+/− and MFS mice,1 week
same,Elastic fiber fragmentation,Adamts1+/− mice; [4],decreased elastic fiber fragmentation
same,Fibrosis (collagen content),Adamts1+/− mice; [4],diminished fibrosis
same,AsAo and AbAo diameter,Adamts1+/− mice; L-NAME in drinking water for 21 days,rapidly decreased AsAo and AbAo diameter to normal levels
same,Systolic and diastolic BP,"Adamts1+/− mice; L-NAME in drinking water for 21 days, end of experiment",reverted the systolic and diastolic hypotension
CC(=N)NCCCC[C@H](N)C(=O)O [L-NIL],"NO production (total NOx in conditioned media, NO staining)",Nos2 [1],reduced the expression of NO
CCCCc1nc(Cl)c(CO)n1Cc1ccc(-c2ccccc2-c2nn[nH]n2)cc1 [losartan],Effectiveness in severe MFS model,model of severe MFS,less effective
same,Reduction of the rate of aortic root enlargement,aortic root enlargement; versus atenolol,no more effective
same,Benefit of dual therapy with atenolol,aortic root enlargement,no additional benefit
same,"Elastic fiber fragmentation (elastolysis, elastin breaks)",[3],did not reduce elastic fiber fragmentation
same,Fibrosis (collagen content),[3],did not reduce elastic fiber fragmentation or fibrosis
same,Aortic dilation (AsAo and AbAo diameter) induced by siAdamts1,[3]; losartan 10 mg/kg/day minipump,neither treatment inhibited aortic dilation
same,Systolic and diastolic BP (hypotension) in siAdamts1-transduced mice,[3],did not prevent hypotension
same,BP in control mice,"[3]; siCtl control mice, losartan 10 mg/kg/day minipump",reduced BP in control mice
same,Aortic dilation,mouse model of mild MFS,these processes are also inhibited
same,Elastic lamellae fragmentation,mouse model of mild MFS,these processes are also inhibited
Aminoguanidine,"NO production (total NOx in conditioned media, NO staining)",Nos2 [1],reduced the expression of NO
same,Aortic diameter (ascending and abdominal aorta),Adamts1+/− mice; AG 1.5 gr/1 in drinking water,reduces aortic diameter
"Angiotensin-II (DRVYIHPF; Angiotensin-2; UniProt P01019 25-32, looked up) [Ang-II]","Aortic dilation (AR, AsAo, AbAo)","wt mice; 8-week-old wt mice, Ang-II for 28 days, 1 μg/kg/min minipump",promoted generalized aortic dilation
same,AA or lethal aortic dissections,"wt mice; wt mice, Ang-II 28 days",barely induced AA or lethal aortic dissections
same,AA or lethal aortic dissections,"Adamts1+/− mice; Adamts1+/− mice, Ang-II 28 days",readily triggered their formation
